Experiments:
ABL1(T315I) = ABL1(T315I) (Homo sapiens, UniProt P00519, T315I); conditions: nonphosphorylated; 1 µM; binder
BRAF = BRAF (Homo sapiens, UniProt P15056); conditions: 1 µM; binder
BRSK2 = BRSK2 (Homo sapiens, UniProt Q8IWQ3); conditions: 1 µM; binder
BUB1 = BUB1 (Homo sapiens, UniProt O43683); conditions: 1 µM; binder
CSNK1E = CSNK1E (Homo sapiens, UniProt P49674); conditions: 1 µM; binder
DAPK1 = DAPK1 (Homo sapiens, UniProt P53355); conditions: 1 µM; binder
DAPK2 = DAPK2 (Homo sapiens, UniProt Q9UIK4); conditions: 1 µM; binder
IKK-beta = IKK-beta (Homo sapiens, UniProt O14920); conditions: 1 µM; binder
ITK = ITK (Homo sapiens, UniProt Q08881); conditions: 1 µM; binder
KIT(D816H) = KIT(D816H) (Homo sapiens, UniProt P10721, D816H); conditions: 1 µM; binder
KIT-autoinhibited = KIT-autoinhibited (Homo sapiens, UniProt P10721); conditions: 1 µM; binder
MAPKAPK2 = MAPKAPK2 (Homo sapiens, UniProt P49137); conditions: 1 µM; binder
MARK1 = MARK1 (Homo sapiens, UniProt Q9P0L2); conditions: 1 µM; binder
NEK5 = NEK5 (Homo sapiens, UniProt Q6P3R8); conditions: 1 µM; binder
PDGFRB = PDGFRB (Homo sapiens, UniProt P09619); conditions: 1 µM; binder
PDPK1 = PDPK1 (Homo sapiens, UniProt O15530); conditions: 1 µM; binder
PIK3CA(M1043I) = PIK3CA(M1043I) (Homo sapiens, UniProt P42336, M1043I); conditions: 1 µM; binder
PIP4K2B = PIP4K2B (Homo sapiens, UniProt P78356); conditions: 1 µM; binder
PRKCH = PRKCH (Homo sapiens, UniProt P24723); conditions: 1 µM; binder
RIOK2 = RIOK2 (Homo sapiens, UniProt Q9BVS4); conditions: 1 µM; binder
RIPK2 = RIPK2 (Homo sapiens, UniProt O43353); conditions: 1 µM; binder
SRC = SRC (Homo sapiens, UniProt P12931); conditions: 1 µM; binder
ULK3 = ULK3 (Homo sapiens, UniProt Q6PHR2); conditions: 1 µM; binder
WNK2 = WNK2 (Homo sapiens, UniProt Q9Y3S1); conditions: 1 µM; binder
WNK4 = WNK4 (Homo sapiens, UniProt Q96J92); conditions: 1 µM; binder

Chain of WNK2 (Q9Y3S1 whole entry): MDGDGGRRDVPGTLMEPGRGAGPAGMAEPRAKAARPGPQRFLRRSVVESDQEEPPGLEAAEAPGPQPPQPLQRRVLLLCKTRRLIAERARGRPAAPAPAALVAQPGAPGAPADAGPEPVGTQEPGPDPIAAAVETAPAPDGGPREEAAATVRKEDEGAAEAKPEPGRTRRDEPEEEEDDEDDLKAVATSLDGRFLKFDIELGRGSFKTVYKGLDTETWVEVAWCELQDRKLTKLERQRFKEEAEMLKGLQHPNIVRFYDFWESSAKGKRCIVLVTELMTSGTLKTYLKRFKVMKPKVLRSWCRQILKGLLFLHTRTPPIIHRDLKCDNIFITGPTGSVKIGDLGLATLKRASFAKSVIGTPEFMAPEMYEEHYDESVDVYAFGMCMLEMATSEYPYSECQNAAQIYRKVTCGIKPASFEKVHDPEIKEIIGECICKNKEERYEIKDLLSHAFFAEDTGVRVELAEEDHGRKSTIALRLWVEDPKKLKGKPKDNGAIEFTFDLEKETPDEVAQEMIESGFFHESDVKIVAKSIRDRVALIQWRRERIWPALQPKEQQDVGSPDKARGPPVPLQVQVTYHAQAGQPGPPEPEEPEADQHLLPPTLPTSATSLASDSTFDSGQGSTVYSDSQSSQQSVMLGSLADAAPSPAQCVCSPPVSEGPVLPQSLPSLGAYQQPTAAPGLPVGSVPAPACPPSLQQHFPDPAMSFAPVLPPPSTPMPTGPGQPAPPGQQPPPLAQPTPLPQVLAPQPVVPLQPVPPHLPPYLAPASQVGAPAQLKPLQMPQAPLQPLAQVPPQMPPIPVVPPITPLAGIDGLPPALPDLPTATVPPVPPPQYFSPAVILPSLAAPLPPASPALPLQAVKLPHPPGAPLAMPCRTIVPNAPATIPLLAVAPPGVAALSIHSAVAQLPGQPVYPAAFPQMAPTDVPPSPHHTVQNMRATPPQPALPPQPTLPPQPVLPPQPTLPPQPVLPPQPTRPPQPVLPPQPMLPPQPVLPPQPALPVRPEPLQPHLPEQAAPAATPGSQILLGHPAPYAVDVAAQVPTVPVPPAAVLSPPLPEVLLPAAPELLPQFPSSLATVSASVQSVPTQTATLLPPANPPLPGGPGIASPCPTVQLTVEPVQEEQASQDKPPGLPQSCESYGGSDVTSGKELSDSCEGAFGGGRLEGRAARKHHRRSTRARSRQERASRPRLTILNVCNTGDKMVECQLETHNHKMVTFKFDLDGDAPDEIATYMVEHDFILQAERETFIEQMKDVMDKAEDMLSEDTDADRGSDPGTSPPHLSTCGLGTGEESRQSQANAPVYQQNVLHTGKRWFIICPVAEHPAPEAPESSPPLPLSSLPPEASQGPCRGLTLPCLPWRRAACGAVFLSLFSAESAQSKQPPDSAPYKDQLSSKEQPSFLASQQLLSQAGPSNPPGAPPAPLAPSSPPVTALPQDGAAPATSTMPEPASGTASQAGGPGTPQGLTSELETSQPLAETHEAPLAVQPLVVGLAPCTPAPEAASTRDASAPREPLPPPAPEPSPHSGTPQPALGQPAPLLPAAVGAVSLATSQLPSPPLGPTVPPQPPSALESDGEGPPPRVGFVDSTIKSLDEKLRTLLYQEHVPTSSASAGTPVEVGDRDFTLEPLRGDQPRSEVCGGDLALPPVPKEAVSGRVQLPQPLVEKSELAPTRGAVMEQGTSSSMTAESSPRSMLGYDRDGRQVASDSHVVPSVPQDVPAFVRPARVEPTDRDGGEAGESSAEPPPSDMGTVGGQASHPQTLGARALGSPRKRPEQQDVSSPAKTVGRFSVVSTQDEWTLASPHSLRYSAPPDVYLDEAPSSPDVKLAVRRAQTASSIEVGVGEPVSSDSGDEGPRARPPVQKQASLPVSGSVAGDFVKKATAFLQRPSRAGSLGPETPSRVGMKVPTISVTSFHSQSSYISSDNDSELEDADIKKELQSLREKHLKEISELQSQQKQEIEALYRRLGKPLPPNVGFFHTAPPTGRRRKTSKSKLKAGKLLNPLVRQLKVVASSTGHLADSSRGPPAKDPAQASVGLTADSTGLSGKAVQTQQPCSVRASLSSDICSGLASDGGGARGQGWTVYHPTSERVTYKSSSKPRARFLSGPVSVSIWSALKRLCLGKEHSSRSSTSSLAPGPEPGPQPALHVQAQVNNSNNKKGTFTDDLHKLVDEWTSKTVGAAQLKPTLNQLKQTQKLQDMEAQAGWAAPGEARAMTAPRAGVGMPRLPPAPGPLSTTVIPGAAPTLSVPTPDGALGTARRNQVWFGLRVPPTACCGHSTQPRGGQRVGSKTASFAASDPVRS
Chain of PDPK1 (O15530 whole entry): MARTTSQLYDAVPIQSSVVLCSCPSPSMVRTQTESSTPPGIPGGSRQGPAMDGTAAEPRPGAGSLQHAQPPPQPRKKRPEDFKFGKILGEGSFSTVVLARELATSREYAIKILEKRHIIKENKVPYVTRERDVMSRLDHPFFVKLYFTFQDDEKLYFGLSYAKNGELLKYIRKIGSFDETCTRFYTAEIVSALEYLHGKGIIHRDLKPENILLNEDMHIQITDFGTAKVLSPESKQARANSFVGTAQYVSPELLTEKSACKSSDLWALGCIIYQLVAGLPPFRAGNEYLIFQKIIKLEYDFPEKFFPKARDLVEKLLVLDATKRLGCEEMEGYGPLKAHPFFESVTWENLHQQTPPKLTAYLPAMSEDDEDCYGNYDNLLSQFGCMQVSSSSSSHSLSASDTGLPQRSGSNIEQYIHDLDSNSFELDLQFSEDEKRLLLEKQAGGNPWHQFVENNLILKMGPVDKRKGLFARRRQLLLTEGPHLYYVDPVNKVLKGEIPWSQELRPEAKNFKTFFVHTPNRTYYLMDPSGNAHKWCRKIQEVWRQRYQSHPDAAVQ
Chain of BRSK2 (Q8IWQ3 whole entry): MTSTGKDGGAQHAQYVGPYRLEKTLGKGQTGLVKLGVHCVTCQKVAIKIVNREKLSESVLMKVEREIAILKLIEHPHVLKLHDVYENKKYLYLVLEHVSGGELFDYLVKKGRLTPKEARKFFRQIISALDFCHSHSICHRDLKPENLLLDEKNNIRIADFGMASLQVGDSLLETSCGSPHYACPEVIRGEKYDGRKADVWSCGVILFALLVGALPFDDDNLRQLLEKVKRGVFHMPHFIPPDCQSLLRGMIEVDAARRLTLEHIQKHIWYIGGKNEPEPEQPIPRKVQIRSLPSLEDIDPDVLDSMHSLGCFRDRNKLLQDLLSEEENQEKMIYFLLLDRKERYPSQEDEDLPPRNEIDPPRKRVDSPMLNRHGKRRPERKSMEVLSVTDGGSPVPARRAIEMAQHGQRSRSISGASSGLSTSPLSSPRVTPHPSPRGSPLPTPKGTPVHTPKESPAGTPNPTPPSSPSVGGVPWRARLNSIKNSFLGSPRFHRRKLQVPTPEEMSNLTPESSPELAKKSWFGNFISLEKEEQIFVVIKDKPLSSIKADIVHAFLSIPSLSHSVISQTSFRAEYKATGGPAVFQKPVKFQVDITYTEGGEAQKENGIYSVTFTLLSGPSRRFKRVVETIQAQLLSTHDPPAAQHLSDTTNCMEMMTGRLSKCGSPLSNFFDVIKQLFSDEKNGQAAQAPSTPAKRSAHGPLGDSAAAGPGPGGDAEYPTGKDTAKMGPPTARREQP
Chain of ITK (Q08881 whole entry): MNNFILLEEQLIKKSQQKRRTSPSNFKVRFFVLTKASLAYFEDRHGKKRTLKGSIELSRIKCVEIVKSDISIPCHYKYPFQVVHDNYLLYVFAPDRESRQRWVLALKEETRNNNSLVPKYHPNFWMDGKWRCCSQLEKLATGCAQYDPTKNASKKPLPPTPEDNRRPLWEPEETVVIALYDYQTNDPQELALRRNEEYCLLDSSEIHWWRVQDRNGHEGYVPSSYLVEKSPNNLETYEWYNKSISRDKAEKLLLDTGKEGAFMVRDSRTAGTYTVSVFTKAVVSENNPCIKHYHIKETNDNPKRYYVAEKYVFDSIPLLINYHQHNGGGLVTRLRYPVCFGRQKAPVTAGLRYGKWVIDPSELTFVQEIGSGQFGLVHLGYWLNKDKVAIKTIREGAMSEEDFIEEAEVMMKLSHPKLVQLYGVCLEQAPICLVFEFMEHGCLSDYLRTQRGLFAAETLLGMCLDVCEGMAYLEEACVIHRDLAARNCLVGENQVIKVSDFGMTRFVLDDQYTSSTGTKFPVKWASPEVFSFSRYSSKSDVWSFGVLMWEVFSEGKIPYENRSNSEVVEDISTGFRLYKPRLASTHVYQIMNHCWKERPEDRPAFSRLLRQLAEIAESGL
Chain of ULK3 (Q6PHR2 whole entry): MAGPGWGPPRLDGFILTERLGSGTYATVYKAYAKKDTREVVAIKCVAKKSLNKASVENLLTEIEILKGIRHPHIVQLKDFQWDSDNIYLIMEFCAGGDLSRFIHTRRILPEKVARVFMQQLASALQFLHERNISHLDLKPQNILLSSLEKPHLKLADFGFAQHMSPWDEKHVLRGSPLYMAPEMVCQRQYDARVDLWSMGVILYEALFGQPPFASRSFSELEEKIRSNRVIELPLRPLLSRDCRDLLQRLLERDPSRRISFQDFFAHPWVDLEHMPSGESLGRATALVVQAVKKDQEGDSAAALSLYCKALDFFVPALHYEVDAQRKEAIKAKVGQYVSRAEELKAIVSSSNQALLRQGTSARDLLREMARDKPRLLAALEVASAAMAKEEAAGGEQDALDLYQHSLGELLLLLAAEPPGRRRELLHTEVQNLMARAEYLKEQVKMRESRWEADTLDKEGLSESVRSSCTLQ
Chain of PIP4K2B (P78356 whole entry): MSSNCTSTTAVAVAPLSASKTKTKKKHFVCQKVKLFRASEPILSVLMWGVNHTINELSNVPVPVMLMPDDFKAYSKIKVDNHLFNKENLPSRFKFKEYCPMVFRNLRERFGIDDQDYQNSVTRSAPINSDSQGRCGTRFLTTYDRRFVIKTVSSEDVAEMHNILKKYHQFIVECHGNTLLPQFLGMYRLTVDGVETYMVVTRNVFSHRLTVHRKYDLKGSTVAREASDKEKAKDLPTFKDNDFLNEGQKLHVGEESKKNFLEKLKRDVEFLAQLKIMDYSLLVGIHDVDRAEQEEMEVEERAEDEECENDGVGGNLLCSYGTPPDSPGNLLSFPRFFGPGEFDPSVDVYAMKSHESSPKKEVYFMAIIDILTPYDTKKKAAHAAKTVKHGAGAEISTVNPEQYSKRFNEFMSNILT

CNc1ncc2cc(-c3ccc(-c4cccc(C)n4)cc3Cl)c(=O)n(C[C@H]3OC[C@H](N)CO3)c2n1 [compound 6, G-5555]
Percent Control (ABL1(T315I)): 100% | Percent Control (BRAF): 100% | Percent Control (BRSK2): 100% | Percent Control (BUB1): 89% | Percent Control (CSNK1E): 52% | Percent Control (DAPK1): 100% | Percent Control (DAPK2): 100% | Percent Control (IKK-beta): 80% | Percent Control (ITK): 100% | Percent Control (KIT(D816H)): 100% | Percent Control (KIT-autoinhibited): 81% | Percent Control (MAPKAPK2): 100% | Percent Control (MARK1): 68% | Percent Control (NEK5): 100% | Percent Control (PDGFRB): 84% | Percent Control (PDPK1): 71% | Percent Control (PIK3CA(M1043I)): 100% | Percent Control (PIP4K2B): 87% | Percent Control (PRKCH): 78% | Percent Control (RIOK2): 100% | Percent Control (RIPK2): 65% | Percent Control (SRC): 100% | Percent Control (ULK3): 52% | Percent Control (WNK2): 88% | Percent Control (WNK4): 18%
